Measurements as given in article PMC11645189 (ACS infectious diseases, 2024).

How the values were obtained:
P. falciparum D6 = settings: read-out: asexual blood-stage vs. P. falciparum D6 IC50; cited from earlier work
P. yoelii = experiment: in vivo blood-stage efficacy in the P. yoelii mouse model; design: species or system Plasmodium yoelii
[1] = tested on: P. falciparum stage V gametocytes; experiment: gametocytocidal assay using late-stage gametocytes; format: cell-based; settings: Plasmodium falciparum, read-out: sexual blood-stage vs. P. falciparum stage V gametocytes IC50

## O=C1C(O)=C([C@H]2CC[C@H](c3ccc(Cl)cc3)CC2)C(=O)c2ccccc21 [ATQ, Atovaquone]
P. falciparum D6
  IC50: 0.0001 µM

## CCN(CC)CCCC(C)Nc1ccnc2cc(Cl)ccc12 (stereo not shown) [CQ, chloroquine]
P. yoelii; 25 mg/kg/4d oral
  in vivo %parasitemia reduction vs. controls on day 5: 100%
P. yoelii; 50 mg/kg/4d oral
  in vivo %parasitemia reduction vs. controls on day 5: 100%

## CN(C)c1ccc2nc3ccc(=[N+](C)C)cc-3sc2c1 [methylene blue]
[1]
  IC50: 0.143 µM
